From ChEMBL document CHEMBL4831557, “Parthenolide Derivatives as PKM2 Activators Showing Potential in Colorectal Cancer” (J Med Chem, 2021) come the findings set out here.

The subject of one series is A549. The experiment in a line: cells. Particulars: Homo sapiens, A549, 48 h.
The test system of a further series is NCM460. As to the kind of experiment: Cytotoxicity against human NCM460 cells assessed as reduction in cell viability incubated for 48 hrs by MTT assay. Particulars: NCM460, 48 h. In kind it is cell-based.
Another series has as its system SW480. The experiment in a line: Cytotoxicity against human SW480 cells assessed as reduction in cell viability incubated for 48 hrs by MTT assay. It is filed as functional, cell-based. The note with it: SW480, 48 h.
Another series deals with U2OS. As to the kind of experiment: Cytotoxicity against human U2OS cells assessed as reduction in cell viability incubated for 48 hrs by MTT assay. In kind it is functional, cell-based.
The next series deals with HT-29. The experiment in a line: Cytotoxicity against human HT-29 cells assessed as reduction in cell viability incubated for 48 hrs by MTT assay. It is filed as functional, cell-based. Particulars: HT-29, 48 h.
Series [1] in a line: Selectivity index, ratio of IC50 for human NCM460 cells to IC50 for human HT-29 cells. It is filed as toxicity. Particulars: NCM460 cells versus HT-29 cells, read-out: Ratio IC50.
The test system of a further series is HCT-116. As to the kind of experiment: Cytotoxicity against human HCT-116 cells assessed as reduction in cell viability incubated for 48 hrs by MTT assay. It is filed as functional, cell-based. The note with it: HCT-116, 48 h.
In another series the test system is MDA-MB-231. As to the kind of experiment: Cytotoxicity against human MDA-MB-231 cells assessed as reduction in cell viability incubated for 48 hrs by MTT assay. It is filed as functional, cell-based. The note with it: MDA-MB-231, 48 h.
Another series concerns HepG2. As to the kind of experiment: Cytotoxicity against human HepG2 cells assessed as reduction in cell viability incubated for 48 hrs by MTT assay. It is filed as functional, cell-based. Particulars: HepG2, 48 h.
Series [2] can be described thus: Selectivity index, ratio of IC50 for human NCM460 cells to IC50 for human SW480 cells.
Another series concerns the target Pyruvate kinase PKM (Homo sapiens, UniProt P14618). As to the kind of experiment: Activation of recombinant human PKM2 at 10 uM incubated 30 mins by fluorescence microplate reader analysis. Particulars: filed as activator.

Structures are written as SMILES. Activity calls are given as the source filed them. No cut-off for these calls is given here.

Pyruvate kinase PKM, sequence (P14618 2-531 limits assumed): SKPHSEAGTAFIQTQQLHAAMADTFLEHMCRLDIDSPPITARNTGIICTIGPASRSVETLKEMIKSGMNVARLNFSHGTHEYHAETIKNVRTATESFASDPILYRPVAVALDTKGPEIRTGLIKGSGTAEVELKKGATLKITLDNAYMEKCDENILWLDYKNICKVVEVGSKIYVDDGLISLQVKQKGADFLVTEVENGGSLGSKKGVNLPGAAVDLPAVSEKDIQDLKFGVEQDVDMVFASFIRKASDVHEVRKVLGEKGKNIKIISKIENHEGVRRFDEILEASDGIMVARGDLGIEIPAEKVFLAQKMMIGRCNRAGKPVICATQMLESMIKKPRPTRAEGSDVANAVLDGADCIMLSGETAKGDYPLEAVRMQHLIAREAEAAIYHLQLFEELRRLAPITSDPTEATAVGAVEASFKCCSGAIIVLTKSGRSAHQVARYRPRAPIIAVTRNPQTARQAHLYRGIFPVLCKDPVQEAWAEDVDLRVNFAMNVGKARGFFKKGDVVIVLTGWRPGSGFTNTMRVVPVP

On to `C=C1C(=O)O[C@@H]2C3O[C@]3(C)CC/C=C(\C)CC[C@@H]12` (stereo not given in full), for which the IC50 in the series with A549 amounted to 10.3 µM; with NCM460, 2.78 µM; in the series with SW480, 3.56 µM; in the series on U2OS, 7 µM; with HT-29, 7.41 µM; in the series on HCT-116, 8.12 µM. In addition, the IC50 with MDA-MB-231 turned out to be 8.68 µM; in the series on HepG2, 26.1 µM. Besides, the selectivity ratio in [1] came to 0.38. Moreover, the “Ratio IC50” value in series [2] was determined as 0.78.

For `C=C1C(=O)O[C@H]2[C@H]1CC/C(COC(=O)c1ccc3ncccc3c1)=C/CC[C@@]1(C)O[C@@H]21`, the IC50 was 3.18 µM in the series with A549; 0.29 µM in the series with SW480; 3.11 µM with U2OS; 1.33 µM in the series on HT-29; 1.6 µM in the series on HCT-116; 1.99 µM in the series with MDA-MB-231. In addition, the IC50 in the series with HepG2 amounted to 6.6 µM. Further, the result on Pyruvate kinase PKM was Active.

For `C=C1C(=O)O[C@H]2[C@H]1CC/C(C(=O)CN1CCCN(C(=O)c3ccc4ccccc4n3)CC1)=C/CC[C@@]1(C)O[C@@H]21`, the IC50 with A549 is 9.68 µM; with SW480 it was 3.13 µM; in the series on U2OS, 10.6 µM; in the series on HT-29, 4.31 µM; in the series on HCT-116, 4.32 µM; with MDA-MB-231 it was 7.44 µM. Moreover, in the series on HepG2, the IC50 worked out at 5 µM.

With `C=C1C(=O)O[C@H]2[C@H]1CC[C@@]1(COC(=O)c3ccc4ncccc4c3)O[C@@H]1CC[C@@]1(C)O[C@@H]21`, the IC50 turned out to be 6.69 µM in the series on A549; 2.4 µM in the series on SW480; 6.43 µM with U2OS; 0.94 µM in the series with HT-29; 1.8 µM in the series with HCT-116; 6.61 µM in the series on MDA-MB-231. Also, the IC50 with HepG2 turned out to be 7.13 µM.

For the compound `C=C1C(=O)O[C@H]2[C@H]1CC/C(COC(=O)CCc1nc3ccccc3[nH]c1=O)=C/CC[C@@]1(C)O[C@@H]21`, the IC50 came out at 8.12 µM in the series with A549; 1.74 µM in the series with SW480; 6.99 µM in the series with U2OS; 5.66 µM in the series on HT-29; 6.13 µM in the series with HCT-116; 7.56 µM in the series on MDA-MB-231. Besides, the IC50 in the series with HepG2 was 14.2 µM.

As to `Cn1c2cc([S+](C)[O-])sc2c2cnn(Cc3cccc(N)c3)c(=O)c21` (stereo not given), the IC50 was over 100 µM in the series with A549; 93 µM in the series with SW480; over 100 µM in the series on U2OS; over 100 µM in the series on HT-29; 89.9 µM in the series with HCT-116; over 100 µM with MDA-MB-231. Moreover, the IC50 with HepG2 was over 100 µM.

Regarding `C=C1C(=O)O[C@H]2[C@H]1CC/C(COC(=O)c1ccc3nc(C)ccc3c1)=C/CC[C@@]1(C)O[C@@H]21`, the IC50 came to 1.34 µM in the series on A549; 0.79 µM with SW480; 1.68 µM with U2OS; 1.61 µM with HT-29; 2.78 µM in the series with HCT-116; 1.29 µM with MDA-MB-231. In addition, the IC50 in the series on HepG2 was 7.79 µM.

Consider `C/C1=C\CC[C@@]2(C)O[C@H]2[C@H]2OC(=O)/C(=C\c3ccc4nccnc4c3)[C@@H]2CC1`, for which the IC50 with A549 worked out at 9.18 µM; with SW480, 3.51 µM; with U2OS, 3 µM; in the series on HT-29 it was 358 µM; in the series on HCT-116, 4.38 µM; with MDA-MB-231 it was 7.59 µM. Further, in the series with HepG2, the IC50 came out at 13.8 µM.

In the case of `C=C1C(=O)O[C@H]2[C@H]1CC/C(COC(=O)c1cnnc3ccccc13)=C/CC[C@@]1(C)O[C@@H]21`, the IC50 in the series on A549 amounted to 2.29 µM; in the series with SW480 it was 1.33 µM; with U2OS, 4.01 µM; in the series on HT-29 it was 4.27 µM; in the series on HCT-116, 3.78 µM; in the series with MDA-MB-231, 3.68 µM. In addition, in the series on HepG2, the IC50 turned out to be 12.5 µM.

Turning to `C=C1C(=O)O[C@H]2[C@H]1CC/C(COC(=O)c1cnc3ccccc3c1)=C/CC[C@@]1(C)O[C@@H]21`, the IC50 came to 2.45 µM in the series with A549; 0.33 µM in the series on SW480; 2.58 µM with U2OS; 2.43 µM in the series on HT-29; 2.7 µM with HCT-116; 2.27 µM with MDA-MB-231. The IC50 in the series on HepG2 was 9.53 µM.

`C/C1=C\CC[C@@]2(C)O[C@H]2[C@H]2OC(=O)C(CN3CCN(C(=O)c4ccc5ccccc5n4)CC3)[C@@H]2CC1` (stereo not given in full): the IC50 in the series on A549 was 60.1 µM; with SW480, 23.1 µM; in the series on U2OS, 23.5 µM; in the series on HT-29, 54.4 µM; in the series on HCT-116 it was 64.3 µM; in the series on MDA-MB-231, 87 µM. Also, the IC50 in the series on HepG2 stood at 69.5 µM.

For the compound `C=C1C(=O)O[C@H]2[C@H]1CC/C(COC(=O)c1ccc3ccccc3c1)=C/CC[C@@]1(C)O[C@@H]21`, the IC50 with A549 is 3.49 µM; with SW480 it was 2.25 µM; in the series with U2OS it was 3.58 µM; with HT-29, 2.8 µM; in the series with HCT-116, 3.05 µM; in the series on MDA-MB-231, 3.34 µM. Further, the IC50 with HepG2 turned out to be 8.15 µM.

For the compound `C/C1=C\CC[C@@]2(C)O[C@H]2[C@H]2OC(=O)/C(=C\c3ccc4nc[nH]c(=O)c4c3)[C@@H]2CC1`, the IC50 is 33.5 µM in the series on A549; 34 µM with SW480; 24.6 µM in the series on U2OS; 28.6 µM in the series with HT-29; 32.9 µM in the series with HCT-116; 55.1 µM in the series with MDA-MB-231. Besides, the IC50 in the series with HepG2 came out at 86.7 µM.
